Target: human NaV subtype, like NaV 1.7 (Homo sapiens, UniProt Q15858)
Test: E-VIPR optical membrane potential assay with electrical stimulation
Assay type: cell-based
Settings: active against one or more sodium channels; Table 3 does not name the assay or NaV subtype; read-out: Binned Activity Data (IC50)
From the text: Assays for Detecting and Measuring NaV Inhibition Properties of Compound E-VIPR Optical Membrane Potential Assay Method with Electrical Stimulation
Sodium channels are voltage-dependent proteins that can be activated by inducing membrane voltage changes by applying electric fields. The electrical stimulation instrument and methods of use are described in Ion Channel Assay Methods PCT/US01/21652, herein incorporated by reference and are referred to as E-VIPR. The instrument comprises a microtiter plate handler, an optical system for exciting the coumarin dye while simultaneously recording the coumarin and oxonol emissions, a waveform generator, a current- or voltage-controlled amplifier, and a device for inserting electrodes in well. Under integrated computer control, this instrument passes user-programmed electrical stimulus protocols to cells within the wells of the microtiter plate.
24 hours before the assay on E-VIPR, HEK cells expressing human NaV subtype, like NaV 1.7, are seeded in 384-well poly-lysine coated plates at 15,000-20,000 cells per well. Other subtypes are performed in an analogous mode in a cell line expressing the NaV of interest. HEK cells are grown in media (exact composition is specific to each cell type and NaV subtype) supplemented with 10% FBS (Fetal Bovine Serum, qualified; GibcoBRL #16140-071) and 1% Pen-Strep (Penicillin-Streptomycin; GibcoBRL #15140-122). Cells are grown in vented cap flasks, in 90% humidity and 10% CO2, to 100% confluence. They are usually split by trypsinization 1:10 or 1:20, depending on scheduling needs, and grown for 2-3 days before the next split.
Bath 1 buffer. Glucose 10 mM (1.8 g/L), Magnesium Chloride (Anhydrous), 1 mM (0.095 g/L), Calcium Chloride, 2 mM (0.222 g/L), HEPES 10 mM (2.38 g/L), Potassium Chloride, 4.5 mM (0.335 g/L), Sodium Chloride 160 mM (9.35 g/L).
Hexyl Dye Solution: Bath 1 Buffer+0.5% β-cyclodextrin (make this prior to use, Sigma #C4767), 8 μM CC2-DMPE+2.5 μM DiSBAC6(3). To make the solution Add volume of 10% Pluronic F127 stock equal to volumes of CC2-DMPE+DiSBAC6(3). The order of preparation is first mix Pluronic and CC2-DMPE, then add DiSBAC6(3) while vortexing, then add Bath 1+β-Cyclodextrin.
1) Pre-spot compounds (in neat DMSO) into compound plates. Vehicle control (neat DMSO), the positive control (20 mM DMSO stock tetracaine, 125 μM final in assay) and test compounds are added to each well at 160× desired final concentration in neat DMSO. Final compound plate volume will be 80 μL (80-fold intermediate dilution from 1 μL DMSO spot; 160-fold final dilution after transfer to cell plate). Final DMSO concentration for all wells in assay is 0.625%.
2) Prepare Hexyl Dye Solution.
3) Prepare cell plates. On the day of the assay, medium is aspirated and cells are washed three times with 100 μL of Bath 1 Solution, maintaining 25 μL residual volume in each well.
4) Dispense 25 μL per well of Hexyl Dye Solution into cell plates. Incubate for 20-35 minutes at room temp or ambient conditions.
5) Dispense 80 μL per well of Bath 1 into compound plates. Acid Yellow-17 (1 mM) is added and Potassium Chloride can be altered from 4.5 to 20 mM depending on the NaV subtype and assay sensitivity.
6) Wash cell plates three times with 100 μL per well of Bath1, leaving 25 μL of residual volume. Then transfer 25 uL per well from Compound Plates to Cell Plates. Incubate for 20-35 minutes at room temp/ambient condition
7) Read Plate on E-VIPR. Use the current-controlled amplifier to deliver stimulation wave pulses for typically 9 seconds and a scan rate of 400 Hz. A pre-stimulus recording is performed for 0.5 seconds to obtain the un-stimulated intensities baseline. The stimulatory waveform is applied for 9 seconds followed by 0.5 seconds of post-stimulation recording to examine the relaxation to the resting state.

human NaV subtype, like NaV 1.7, sequence (Q15858 whole entry): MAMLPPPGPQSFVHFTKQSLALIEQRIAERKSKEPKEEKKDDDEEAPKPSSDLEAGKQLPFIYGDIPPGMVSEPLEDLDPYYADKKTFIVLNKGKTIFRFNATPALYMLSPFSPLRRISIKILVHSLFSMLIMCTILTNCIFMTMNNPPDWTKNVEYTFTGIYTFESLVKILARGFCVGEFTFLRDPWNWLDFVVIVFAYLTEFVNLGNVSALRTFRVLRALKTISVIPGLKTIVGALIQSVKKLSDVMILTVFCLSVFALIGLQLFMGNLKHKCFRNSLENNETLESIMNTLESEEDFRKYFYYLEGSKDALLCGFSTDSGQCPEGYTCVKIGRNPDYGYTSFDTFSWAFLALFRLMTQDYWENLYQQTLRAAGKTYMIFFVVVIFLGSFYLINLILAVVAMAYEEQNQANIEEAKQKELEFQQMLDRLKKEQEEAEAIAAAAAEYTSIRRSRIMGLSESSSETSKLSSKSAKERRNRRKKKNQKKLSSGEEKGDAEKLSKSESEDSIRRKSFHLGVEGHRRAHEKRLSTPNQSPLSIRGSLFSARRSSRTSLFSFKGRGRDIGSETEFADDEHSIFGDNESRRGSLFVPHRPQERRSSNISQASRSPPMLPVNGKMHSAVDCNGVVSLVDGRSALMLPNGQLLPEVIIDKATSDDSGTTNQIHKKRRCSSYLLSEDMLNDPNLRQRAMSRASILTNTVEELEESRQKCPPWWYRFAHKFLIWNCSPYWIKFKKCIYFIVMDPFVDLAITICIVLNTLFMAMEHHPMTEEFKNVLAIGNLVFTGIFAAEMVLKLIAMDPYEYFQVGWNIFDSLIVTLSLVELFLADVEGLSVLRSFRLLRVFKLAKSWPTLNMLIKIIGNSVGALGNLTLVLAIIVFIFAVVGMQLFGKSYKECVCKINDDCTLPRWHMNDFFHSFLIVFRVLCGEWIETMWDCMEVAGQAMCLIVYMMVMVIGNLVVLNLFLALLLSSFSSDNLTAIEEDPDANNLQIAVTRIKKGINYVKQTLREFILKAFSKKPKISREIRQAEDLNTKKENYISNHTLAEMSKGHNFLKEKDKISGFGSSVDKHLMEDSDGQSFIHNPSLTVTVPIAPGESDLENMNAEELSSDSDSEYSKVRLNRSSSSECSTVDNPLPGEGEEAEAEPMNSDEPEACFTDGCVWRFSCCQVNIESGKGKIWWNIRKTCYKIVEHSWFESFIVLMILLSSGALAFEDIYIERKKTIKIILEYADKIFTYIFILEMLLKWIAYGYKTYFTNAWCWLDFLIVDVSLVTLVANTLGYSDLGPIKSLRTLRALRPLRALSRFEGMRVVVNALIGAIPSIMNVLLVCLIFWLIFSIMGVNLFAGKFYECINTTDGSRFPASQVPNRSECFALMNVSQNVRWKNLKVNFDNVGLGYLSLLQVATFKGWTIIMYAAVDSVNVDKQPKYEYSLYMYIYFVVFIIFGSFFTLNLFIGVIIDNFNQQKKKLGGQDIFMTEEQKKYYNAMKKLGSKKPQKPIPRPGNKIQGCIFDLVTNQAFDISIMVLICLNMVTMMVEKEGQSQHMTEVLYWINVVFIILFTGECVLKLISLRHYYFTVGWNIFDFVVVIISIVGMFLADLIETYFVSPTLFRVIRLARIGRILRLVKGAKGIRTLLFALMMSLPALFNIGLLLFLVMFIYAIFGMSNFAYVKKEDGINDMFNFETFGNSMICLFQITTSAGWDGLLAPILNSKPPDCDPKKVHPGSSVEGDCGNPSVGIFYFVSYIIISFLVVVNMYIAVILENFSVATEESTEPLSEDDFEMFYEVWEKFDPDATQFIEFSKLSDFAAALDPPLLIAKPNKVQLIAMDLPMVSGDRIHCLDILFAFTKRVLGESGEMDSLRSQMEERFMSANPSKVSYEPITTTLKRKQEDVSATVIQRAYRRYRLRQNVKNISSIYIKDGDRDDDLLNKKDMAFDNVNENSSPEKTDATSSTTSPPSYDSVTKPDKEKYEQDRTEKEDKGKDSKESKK

Row | Structure (SMILES) | IC50 [nM]
1 | CCCCCc1ccc(C(=O)N2CCC3(CC2)c2ccc(C(C)=O)n2CCN3C)cc1 [Compound 92] | ≤ 2000
2 | CN1CCn2c(C(=O)C(C)(C)C)ccc2C12CCN(C(=O)c1ccc(S(=O)(=O)C(F)(F)F)cc1)CC2 [Compound 93] | ≤ 2000
3 | CCCN(CCC)S(=O)(=O)c1ccc(C(=O)N2CCC3(CC2)c2ccc(C(C)=O)n2CCN3C)cc1 [Compound 94] | 2000 to 5000
4 | CN1CCn2c(C(=O)C(F)(F)F)ccc2C12CCN(C(=O)c1ccc(C3CCCCC3)cc1)CC2 [Compound 101] | ≤ 2000
5 | CN1CCn2c(C(F)(F)F)cc(Cl)c2C12CCN(C(=O)c1ccc(COCCC(F)(F)F)cc1)CC2 [Compound 102] | ≤ 2000
6 | CC1(C)Cn2c(C(=O)C(F)(F)F)ccc2C2(CCN(C(=O)c3ccc(COCCC(F)(F)F)cc3)CC2)N1 [Compound 103] | ≤ 2000
7 | CN1CCn2c(Cl)ccc2C12CCN(C(=O)c1ccc(-c3ccccc3)cc1)CC2 [Compound 104] | > 5000
8 | CCC(=O)c1ccc2n1CCN(C)C21CCN(C(=O)c2ccc(OC(C)C)c(Cl)c2)CC1 [Compound 107] | ≤ 2000
9 | CC(C)Oc1ccc(C(=O)N2CCC3(CC2)c2ccc(S(C)(=O)=O)n2CCN3C)cc1Cl [Compound 111] | > 5000
10 | CN1CCn2c(C(F)(F)F)cc(F)c2C12CCN(C(=O)c1ccc(C3(O)CCC3)c(F)c1)CC2 [Compound 112] | ≤ 2000
11 | COc1cc(C(=O)N2CCC3(CC2)c2c(F)cc(C(F)(F)F)n2CCN3C)ccc1OC(F)F [Compound 113] | ≤ 2000
12 | COc1cc(C(=O)N2CCC3(CC2)c2ccc(C(=O)C(F)(F)F)n2C(C)CN3C)ccc1OCCOC(F)(F)F (stereo not shown) [Compound 114] | ≤ 2000
13 | CN1CCn2c(C(F)(F)F)ccc2C12CCN(C(=O)c1cccnc1N1CCC(O)C1)CC2 (stereo not shown) [Compound 116] | > 5000
14 | Cc1cc(C(=O)N2CCC3(CC2)c2ccc(C(=O)C(F)(F)F)n2CCN3C)ccc1OC(C)C [Compound 117] | ≤ 2000
15 | COc1cc(C(=O)N2CCC3(CC2)c2c(F)cc(C(F)(F)F)n2CCN3C)ccc1OC(C)C [Compound 118] | ≤ 2000
16 | CC(=O)c1ccc2n1CCN(C)C21CCN(C(=O)c2ccc(OC(C)C)c(C)c2)CC1 [Compound 122] | ≤ 2000
17 | CN1CCn2c(C(F)(F)F)ccc2C12CCN(C(=O)c1ccc(S(=O)(=O)N3CCCC3)cc1)CC2 [Compound 123] | ≤ 2000
18 | CC(C)Oc1ccc(C(=O)N2CCC3(CC2)c2ccc(C(=O)C4CC4)n2CCN3C)c(F)c1 [Compound 124] | ≤ 2000
19 | CC(=O)c1ccc2n1CCN(C)C21CCN(C(=O)c2ccc(OC(C)C)cc2F)CC1 [Compound 125] | 2000 to 5000
20 | COc1cc(C(=O)N2CCC3(CC2)c2ccc(C(=O)C(F)(F)F)n2C(C)(C)CN3C)ccc1OC(C)C [Compound 126] | 2000 to 5000
21 | CCCOc1ccc(C(=O)N2CCC3(CC2)c2ccc(C(=O)C(F)(F)F)n2CCN3C)cc1 [Compound 127] | ≤ 2000
22 | COc1ccc(C(=O)N2CCC3(CC2)c2ccc(C(=O)C(F)(F)F)n2CCN3C)cc1-c1ccccc1 [Compound 130] | 2000 to 5000
23 | CC(C)Oc1ccc(C(=O)N2CCC3(CC2)c2c(F)cc(C(F)(F)F)n2CCN3C)cc1C#N [Compound 134] | ≤ 2000
24 | CN1CCn2c(C(=O)C(F)(F)F)ccc2C12CCN(C(=O)c1ccc(C(CO)OCC(F)(F)F)cc1)CC2 (stereo not shown) [Compound 136] | ≤ 2000
25 | CC(=O)c1cc2n(c1)CC(C)(C)NC21CCN(C(=O)c2ccc(OC(C)C)c(C(F)(F)F)c2)CC1 [Compound 139] | > 5000
26 | Cc1cc(C(=O)N2CCC3(CC2)c2ccc(C(=O)C(C)C)n2CCN3C)ccc1O [Compound 140] | ≤ 2000
27 | CC(C)CCOc1ccc(C(=O)N2CCC3(CC2)c2ccc(C(=O)C(F)(F)F)n2CCN3C)cc1 [Compound 143] | ≤ 2000
28 | COc1cc(C(=O)N2CCC3(CC2)c2ccc(C(=O)C(C)C)n2CCN3C)ccc1OC(C)C [Compound 144] | ≤ 2000
29 | O=C(c1ccc(S(=O)(=O)NC2CC2)cc1)N1CCC2(CC1)c1ccc(C(F)(F)F)n1CCN2C1CCC1 [Compound 145] | > 5000

Now from value to molecule:

Row | IC50 [nM] | Structure (SMILES)
30 | ≤ 2000 | CN1CCn2c(C(F)(F)F)cc(Cl)c2C12CCN(C(=O)c1ccc(C(C)(C)O)c(F)c1)CC2 [Compound 95]
31 | ≤ 2000 | Cc1cc(C(=O)N2CCC3(CC2)c2ccc(C(F)(F)C(F)(F)F)n2CCN3C)ccc1OCCCO [Compound 96]
32 | ≤ 2000 | CN1CCn2c(C(=O)C(C)(C)C)ccc2C12CCN(C(=O)c1ccc(O)c(C(F)(F)F)c1)CC2 [Compound 97]
33 | ≤ 2000 | Cc1cc(C(=O)N2CCC3(CC2)c2ccc(C(F)(F)F)n2CCN3C)ccc1C(C)(C)O [Compound 98]
34 | 2000 to 5000 | COc1ccccc1C(=O)N1CCC2(CC1)c1ccc(C(F)(F)F)n1CCN2C [Compound 99]
35 | ≤ 2000 | CC(C)Oc1ccc(C(=O)N2CCC3(CC2)c2ccc(C(F)(F)F)n2CCN3C)cc1Cl [Compound 100]
36 | ≤ 2000 | COc1cc(C(=O)N2CC[C@]3(c4ccc(C(F)(F)F)n4CCN3C)[C@H](F)C2)ccc1OC(C)C [Compound 105]
37 | ≤ 2000 | Cc1cc(C(=O)N2CCC3(CC2)c2ccc(C(F)(F)F)n2CCN3C2CCC2)ccc1OC(C)C [Compound 106]
38 | 2000 to 5000 | CC(C)Oc1ccc(C(=O)N2CCC3(CC2)N[C@@H](C)Cn2c(C(F)(F)F)ccc23)cc1F [Compound 108]
39 | > 5000 | Cc1cccc(C(=O)N2CCC3(CC2)c2ccc(C(F)(F)F)n2CCN3C)c1 [Compound 109]
40 | ≤ 2000 | COc1cc(C(=O)N2CCC3(CC2)N[C@H]2CCCC[C@H]2n2cccc23)ccc1C(C)(C)C [Compound 110]
41 | ≤ 2000 | CCCCOc1cc(C(=O)N2CCC3(CC2)c2ccc(C(=O)C(F)(F)F)n2CCN3C)ccc1OC [Compound 115]
42 | ≤ 2000 | CNC(=O)N1CCn2c(C(F)(F)F)ccc2C12CCN(C(=O)c1ccc(OC(C)C)c(OC)c1)CC2 [Compound 119]
43 | 2000 to 5000 | Cc1cc(C(=O)N2CCC3(CC2)c2c(C#N)cc(C(F)(F)F)n2CCN3C)ccc1C(C)(C)O [Compound 120]
44 | > 5000 | COc1ccc(C(=O)N2CCC3(CC2)c2ccc(C(=O)C(F)(F)F)n2CCN3C)cc1F [Compound 121]
45 | ≤ 2000 | Cc1cc(C(=O)N2CCC3(CC2)NCC(C)(C)n2c(C(F)(F)F)ccc23)ccc1C(C)(C)O [Compound 128]
46 | ≤ 2000 | COc1ccc(C(=O)N2CCC3(CC2)NC(C)(C)Cn2c(C(=O)C(F)(F)F)ccc23)cc1Cl [Compound 129]
47 | ≤ 2000 | Cc1cc(C(=O)N2CCC3(CC2)NC(C)(C)Cn2c(C(=O)C(F)(F)F)ccc23)ccc1OC(C)C [Compound 131]
48 | ≤ 2000 | COc1ccc(C(=O)N2CCC3(CC2)c2ccc(C(=O)C4CC4)n2CCN3C)cc1C(F)(F)F [Compound 132]
49 | ≤ 2000 | COc1cc(C(=O)N2CCC3(CC2)NCCn2c(C(F)(F)F)ccc23)ccc1C(C)(C)CO [Compound 133]
50 | ≤ 2000 | CC(C)Oc1ccc(C(=O)N2CCC3(CC2)NCCn2c(C(F)(F)F)ccc23)cc1Cl [Compound 135]
51 | ≤ 2000 | COc1cc(C(=O)N2CCC3(CC2)c2ccc(C(=O)C(C)(C)C)n2CCN3C)ccc1OC(C)C [Compound 137]
52 | ≤ 2000 | Cc1cc(C(=O)N2CCC3(CC2)c2ccc(C(F)(F)F)n2CCN3C(=O)N(C)C)ccc1OC(C)C [Compound 138]
53 | ≤ 2000 | CC[C@H](C)Oc1ccc(C(=O)N2CCC3(CC2)c2c(F)cc(C(F)(F)F)n2CCN3C)cc1OC [Compound 141]
54 | ≤ 2000 | CCCOc1cc(C(=O)N2CCC3(CC2)c2ccc(C(=O)C(F)(F)F)n2CCN3C)ccc1OC [Compound 142]
55 | ≤ 2000 | CCCCOc1ccc(C(=O)N2CCC3(CC2)c2ccc(C(=O)C(F)(F)F)n2CCN3C)cc1OC [Compound 146]
